Measurements published in patent publication US20210113529A1, “MEDICINE FOR PREVENTING OR TREATING OPHTHALMIC DISEASE ASSOCIATED WITH ENHANCED INTRAOCULAR NEOVASCULARIZATION AND/OR INTRAOCULAR VASCULAR PERMEABILITY” (KYOTO UNIVERSITY, priority 2018, published 2021).

Key:
[1] = test system: laser-induced choroidal neovascularization (CNV) model; assay: Laser-induced CNV model: area of CNV in choroidal flat mount; assay type: in vivo, mice; details: Day 14
Experimental: After fluorescence fundus photography had been performed as described above in the section (1), 0.5 mL of fluorescein isothiocyanate dextran (FITC-dextran; 20 mg/mL, Sigma-Aldrich) was administered into the tail vein of the mice. The mice were euthanized by cervical dislocation, and the eyeball was extirpated. The extirpated eyeball was fixed in a 4% paraformaldehyde phosphate buffer for 12 hours. After that, the cornea and lens were excised under a microscope, and the remaining vitreous artery was removed with forceps. Further, the retina was removed, and the choroid was notched 8 points and embedded with Fluoromount (Diagnostic BioSystems) in a flat state to generate a choroidal flat mount specimen. The choroidal flat mount was photographed using a confocal laser scanning microscope (FLUOVIEW FV10i; Olympus, Tokyo, Japan). Next, on the basis of the photographed image, the CNV was encircled using analysis software OLYMPUS FLUOVIEW FV10i (Olympus), and the area thereof was determined as the area of CNV (μm^2). All analyses were performed in a blinded manner. After fluorescence fundus photography had been performed as described above in the section (1), a choroidal flat mount specimen was generated by the same method as in Example 1. The choroidal flat mount was photographed using an all-in-one fluorescence microscope (BZ-X710; Keyence, Osaka, Japan). Next, on the basis of the photographed image, the CNV was encircled using image editing software Image J, and the area thereof was determined as the area of CNV (μm^2). All analyses were performed in a blinded manner.

[2] = test system: retinal vein occlusion (RVO) model; assay: Retinal vein occlusion (RVO) model, oral: thickness of retinal inner nuclear layer (INL); assay type: in vivo, mice; details: dose of at least 0.03 mg/kg or more, 12 hours before and immediately after laser irradiation, 24 hours after irradiation
Experimental: Eight-week-old mice (Japan SLC, Inc., ddy strain) were anesthetized by intramuscularly administering 10 mL/kg of a mixed anesthetic solution diluted so as to contain ketamine (120 mg/kg) and xylazine (6 mg/kg). After that, 0.15 mL of rose bengal (20 mg/kg; WAKO) was administered into the tail vein, and a vein three head systems away from the optic nerve head of the right eye of the mice was irradiated with a laser to occlude a retinal vein. For the occlusion, the laser irradiation was performed 10 times to 15 times per vein. For the laser irradiation, an attachment of a fundus photography apparatus Micron 4 (Phoenix Research Laboratories, Inc., Pleasanton, Calif., USA) was used (wavelength: 532 nm, spot size: 50 μm, irradiation time: 5,000 ms, laser output: 50 mW). Three veins were occluded per eye, and it was confirmed with photographs of the fundus that the laser-irradiated veins had been completely occluded. […]
After 24 hours from the laser irradiation, the mice were euthanized by cervical dislocation, the eyeball was extirpated, and histological evaluation was performed by a hematoxylin-eosin staining method. In addition, the thickness of the retinal inner nuclear layer (INL) was measured at intervals of 240 μm on both sides, i.e., ear side and nose side from the center of the optic nerve head. […]

[3] = test system: human retinal vascular endothelial cells (HRMECs); assay: Permeability of human retinal vascular endothelial cells (Transwell, FITC-dextran); assay type: cell-based; details: HRMECs in Transwell; 0.3 nM, 3 nM or 30 nM; 60 minutes pre-culture, 60 minutes after FITC-dextran (40 kDa)
Experimental: The upper chamber of Transwell (diameter: 6.5 mm, pore size: 0.4 μm: Corning Incorporated) coated with collagen and fibronectin was seeded with human retinal vascular endothelial cells (HRMECs) (Cell Systems) at a cell density of 5×10^4 cells/well, and the cells were cultured in Endothelial Cell Growth Medium MV 2 (PromoCell GmbH) under a 5% CO2 atmosphere at 37° C. for 6 days. Then, to the upper chamber and lower chamber of the Transwell, Compound 1 at a final concentration of 0 nM, 0.3 nM, 3 nM, or 30 nM, which had been prepared using 0.001% dimethyl sulfoxide-containing Endothelial Cell Growth Medium MV 2 as a vehicle, was added, and culture was continued. A well to which only the vehicle was added was used as a control. After 60 minutes of culture, 1 mg/mL of fluorescein isothiocyanate (FITC)-dextran (40 kDa: Sigma-Aldrich) was added to the upper chamber of the Transwell, and 60 minutes later, the fluorescence intensity of the medium in the lower chamber was measured to measure the amount of FITC-dextran permeating the lower chamber.

[4] = biological target: S1P1 receptor (Homo sapiens, UniProt P21453); details: GTP[γ35S] binding assay; report PLoS One, 2014, 9(10), e110819; read-out: EC50 for S1P1 receptor agonist activity; cited from earlier work
[5] = biological target: S1P2 receptor (Homo sapiens, UniProt O95136); details: GTP[γ35S] binding assay; report PLoS One, 2014; cited from earlier work
S1P2 receptor, sequence (O95136 whole entry): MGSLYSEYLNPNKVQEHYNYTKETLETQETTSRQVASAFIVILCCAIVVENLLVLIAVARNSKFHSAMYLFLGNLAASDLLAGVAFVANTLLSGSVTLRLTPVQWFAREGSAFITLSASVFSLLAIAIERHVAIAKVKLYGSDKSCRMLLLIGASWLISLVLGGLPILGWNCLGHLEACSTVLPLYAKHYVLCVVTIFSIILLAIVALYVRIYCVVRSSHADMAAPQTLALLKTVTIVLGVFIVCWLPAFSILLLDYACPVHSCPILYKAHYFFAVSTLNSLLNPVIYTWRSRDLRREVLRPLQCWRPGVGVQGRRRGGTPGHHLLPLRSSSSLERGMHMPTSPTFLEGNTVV

S1P1 receptor, sequence (P21453 whole entry): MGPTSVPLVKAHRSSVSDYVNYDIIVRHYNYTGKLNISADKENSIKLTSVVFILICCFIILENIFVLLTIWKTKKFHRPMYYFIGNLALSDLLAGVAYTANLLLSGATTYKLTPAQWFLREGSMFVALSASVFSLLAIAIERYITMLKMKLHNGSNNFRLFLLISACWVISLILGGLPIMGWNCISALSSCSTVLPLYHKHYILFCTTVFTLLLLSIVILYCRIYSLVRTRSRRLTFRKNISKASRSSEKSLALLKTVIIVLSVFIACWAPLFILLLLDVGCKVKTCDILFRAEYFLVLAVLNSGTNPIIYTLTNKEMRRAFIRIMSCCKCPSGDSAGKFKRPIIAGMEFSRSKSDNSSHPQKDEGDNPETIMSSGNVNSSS

## C[C@H](Oc1ccc(-c2nc(-c3ccc4[nH]cnc4c3)no2)cc1C(F)(F)F)C(F)(F)F.Cl [Compound 1, 5-{5-[3-(trifluoromethyl)-4-{[(2S)-1,1,1-trifluoropropan-2-yl]oxy}phenyl]-1,2,4-oxadiazol-3-yl}-1H-benzimidazole monohydrochloride]
[1]; 0.03 mg/kg orally once daily
  area of CNV: a decrease in area of CNV
[1]; 0.3 mg/kg orally once daily
  area of CNV: a significant decrease was found
  reduction ratio of the area of CNV: 34%
[2]
  thickening of the INL (retinal edema): ameliorated the thickening of the INL
[3]
  amount of FITC-dextran permeating the lower chamber (fluorescence intensity): significantly decreased the amount of FITC-dextran permeating the lower chamber
[4]
  EC50: 7.4 nM
[5]
  EC50 for S1P2 receptor agonist activity as compared to that for the S1P1 receptor: ≥ 100 fold
